Results: the kinase profiling compilation of Christmann-Franck et al. (2016)
Each block holds one compound with its values, some of them ahead of it.

Legend:
Test in all cases: radiometric filter-binding kinase assay
ULK1 (human) = ULK1 (human) (UniProt O75385)
ULK2 (human) = ULK2 (human) (UniProt Q8IYT8)
ZAP70 (human) = ZAP70 (human) (UniProt P43403)
PDGFRA (human) = PDGFRA (human) (UniProt P16234)
DDR2 (human) = DDR2 (human) (UniProt Q16832)
PLK1 (human) = PLK1 (human) (UniProt P53350)
TESK1 (human) = TESK1 (human) (UniProt Q15569)
MAP4K5 (human) = MAP4K5 (human) (UniProt Q9Y4K4)
PTK6 (human) = PTK6 (human) (UniProt Q13882)
SIK3 (human) = SIK3 (human) (UniProt Q9Y2K2)
SIK2 (human) = SIK2 (human) (UniProt Q9H0K1)
IRAK1 (human) = IRAK1 (human) (UniProt P51617)
TSSK1B (human) = TSSK1B (human) (UniProt Q9BXA7)
PRKCG (human) = PRKCG (human) (UniProt P05129)
TLK1 (human) = TLK1 (human) (UniProt Q9UKI8)
TLK1 (human), sequence (Q9UKI8 whole entry, looked up): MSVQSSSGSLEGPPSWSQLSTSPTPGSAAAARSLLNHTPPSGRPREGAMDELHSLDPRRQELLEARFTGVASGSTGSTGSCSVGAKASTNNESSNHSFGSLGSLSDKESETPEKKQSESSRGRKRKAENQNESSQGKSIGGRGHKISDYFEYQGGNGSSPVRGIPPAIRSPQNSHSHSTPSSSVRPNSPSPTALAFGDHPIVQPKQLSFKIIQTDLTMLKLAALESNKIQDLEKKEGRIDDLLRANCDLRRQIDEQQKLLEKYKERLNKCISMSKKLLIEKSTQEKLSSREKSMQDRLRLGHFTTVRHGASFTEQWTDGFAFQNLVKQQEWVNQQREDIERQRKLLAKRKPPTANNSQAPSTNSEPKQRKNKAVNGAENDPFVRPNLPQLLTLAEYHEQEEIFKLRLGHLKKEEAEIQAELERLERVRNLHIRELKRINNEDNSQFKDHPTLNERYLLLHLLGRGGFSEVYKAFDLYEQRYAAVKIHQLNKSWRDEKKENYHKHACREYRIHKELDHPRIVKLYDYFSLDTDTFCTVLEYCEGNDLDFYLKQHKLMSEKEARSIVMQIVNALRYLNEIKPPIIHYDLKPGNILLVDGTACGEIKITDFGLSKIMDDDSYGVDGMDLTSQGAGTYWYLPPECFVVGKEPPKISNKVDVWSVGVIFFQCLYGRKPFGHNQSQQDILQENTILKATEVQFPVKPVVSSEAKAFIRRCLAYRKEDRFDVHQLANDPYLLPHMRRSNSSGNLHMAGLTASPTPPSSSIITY

TTBK2 (human) = TTBK2 (human) (UniProt Q6IQ55)
TTBK2 (human), sequence (Q6IQ55 whole entry, looked up): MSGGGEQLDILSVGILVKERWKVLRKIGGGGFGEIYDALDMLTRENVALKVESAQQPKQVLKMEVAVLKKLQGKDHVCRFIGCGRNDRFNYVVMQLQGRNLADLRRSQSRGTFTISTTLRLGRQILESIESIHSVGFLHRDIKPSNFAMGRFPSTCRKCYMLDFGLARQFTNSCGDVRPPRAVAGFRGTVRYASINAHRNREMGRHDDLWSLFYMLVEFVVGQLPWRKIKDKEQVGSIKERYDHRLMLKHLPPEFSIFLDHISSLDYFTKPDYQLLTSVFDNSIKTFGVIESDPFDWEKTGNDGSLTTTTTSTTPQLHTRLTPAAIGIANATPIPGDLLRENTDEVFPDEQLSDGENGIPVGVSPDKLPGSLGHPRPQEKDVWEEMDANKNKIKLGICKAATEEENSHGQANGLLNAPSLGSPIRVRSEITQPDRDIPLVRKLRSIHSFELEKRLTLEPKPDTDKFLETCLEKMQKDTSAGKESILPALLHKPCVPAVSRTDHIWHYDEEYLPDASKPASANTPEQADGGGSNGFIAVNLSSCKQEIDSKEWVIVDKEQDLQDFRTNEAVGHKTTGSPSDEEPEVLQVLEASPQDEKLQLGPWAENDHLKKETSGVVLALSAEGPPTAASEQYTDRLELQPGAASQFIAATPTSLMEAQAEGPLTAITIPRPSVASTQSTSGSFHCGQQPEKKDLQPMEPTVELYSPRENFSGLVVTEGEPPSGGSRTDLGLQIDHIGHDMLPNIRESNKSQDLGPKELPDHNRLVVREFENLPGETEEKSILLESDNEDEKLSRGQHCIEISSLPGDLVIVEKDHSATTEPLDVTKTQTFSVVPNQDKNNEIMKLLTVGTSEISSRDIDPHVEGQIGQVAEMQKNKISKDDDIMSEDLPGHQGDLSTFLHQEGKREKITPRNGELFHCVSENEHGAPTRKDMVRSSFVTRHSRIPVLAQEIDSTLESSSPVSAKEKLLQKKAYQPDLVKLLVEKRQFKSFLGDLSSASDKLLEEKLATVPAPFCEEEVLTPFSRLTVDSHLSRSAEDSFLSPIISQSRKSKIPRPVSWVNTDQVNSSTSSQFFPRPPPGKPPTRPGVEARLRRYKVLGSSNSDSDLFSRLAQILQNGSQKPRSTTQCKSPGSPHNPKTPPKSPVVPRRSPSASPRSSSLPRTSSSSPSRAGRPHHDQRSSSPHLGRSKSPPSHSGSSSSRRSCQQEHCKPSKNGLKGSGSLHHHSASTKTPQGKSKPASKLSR

[1] = molecular target: PRKAA1 PRKAB2 PRKAG1 (human) (UniProt O43741+Q13131+P54619)
TEK (human) = TEK (human) (UniProt Q02763)
STK24 (human) = STK24 (human) (UniProt Q9Y6E0)
STK16 (human) = STK16 (human) (UniProt O75716)
TTBK1 (human) = TTBK1 (human) (UniProt Q5TCY1)
TTBK1 (human), sequence (Q5TCY1 whole entry, looked up): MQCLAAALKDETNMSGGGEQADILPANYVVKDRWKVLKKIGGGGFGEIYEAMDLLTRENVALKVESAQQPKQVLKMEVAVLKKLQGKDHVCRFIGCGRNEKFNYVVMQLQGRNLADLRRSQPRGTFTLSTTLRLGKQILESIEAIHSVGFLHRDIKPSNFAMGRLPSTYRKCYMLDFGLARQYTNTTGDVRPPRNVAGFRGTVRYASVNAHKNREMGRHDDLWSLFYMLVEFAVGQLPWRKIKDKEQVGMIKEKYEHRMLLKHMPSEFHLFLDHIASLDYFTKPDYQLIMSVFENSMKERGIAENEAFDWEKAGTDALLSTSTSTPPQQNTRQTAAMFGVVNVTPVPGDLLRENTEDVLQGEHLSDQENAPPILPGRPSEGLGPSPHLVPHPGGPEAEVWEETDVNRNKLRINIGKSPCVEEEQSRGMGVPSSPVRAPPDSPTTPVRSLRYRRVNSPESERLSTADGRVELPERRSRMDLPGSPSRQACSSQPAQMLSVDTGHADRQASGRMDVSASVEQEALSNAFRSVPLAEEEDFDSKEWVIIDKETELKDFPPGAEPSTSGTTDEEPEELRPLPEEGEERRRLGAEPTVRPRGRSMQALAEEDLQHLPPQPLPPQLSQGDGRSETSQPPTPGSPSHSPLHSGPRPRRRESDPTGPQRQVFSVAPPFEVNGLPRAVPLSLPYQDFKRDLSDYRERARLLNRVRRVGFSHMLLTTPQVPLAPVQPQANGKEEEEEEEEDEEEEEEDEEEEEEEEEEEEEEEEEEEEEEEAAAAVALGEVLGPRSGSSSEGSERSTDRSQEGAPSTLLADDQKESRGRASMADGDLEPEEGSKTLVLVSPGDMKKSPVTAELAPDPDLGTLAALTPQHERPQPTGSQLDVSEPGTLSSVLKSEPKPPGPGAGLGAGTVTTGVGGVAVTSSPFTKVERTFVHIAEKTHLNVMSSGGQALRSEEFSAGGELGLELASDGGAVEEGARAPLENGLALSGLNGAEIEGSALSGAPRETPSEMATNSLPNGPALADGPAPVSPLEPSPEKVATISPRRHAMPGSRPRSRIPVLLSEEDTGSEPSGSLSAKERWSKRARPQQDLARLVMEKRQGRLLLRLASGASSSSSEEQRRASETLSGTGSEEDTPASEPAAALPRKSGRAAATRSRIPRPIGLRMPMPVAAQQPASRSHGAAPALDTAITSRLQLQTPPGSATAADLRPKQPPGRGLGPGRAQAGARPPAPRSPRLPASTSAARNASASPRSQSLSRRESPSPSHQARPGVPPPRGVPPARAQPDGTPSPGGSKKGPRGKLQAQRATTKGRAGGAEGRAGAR

EIF2AK3 (human) = EIF2AK3 (human) (UniProt Q9NZJ5)
EIF2AK3 (human), sequence (Q9NZJ5 whole entry, looked up): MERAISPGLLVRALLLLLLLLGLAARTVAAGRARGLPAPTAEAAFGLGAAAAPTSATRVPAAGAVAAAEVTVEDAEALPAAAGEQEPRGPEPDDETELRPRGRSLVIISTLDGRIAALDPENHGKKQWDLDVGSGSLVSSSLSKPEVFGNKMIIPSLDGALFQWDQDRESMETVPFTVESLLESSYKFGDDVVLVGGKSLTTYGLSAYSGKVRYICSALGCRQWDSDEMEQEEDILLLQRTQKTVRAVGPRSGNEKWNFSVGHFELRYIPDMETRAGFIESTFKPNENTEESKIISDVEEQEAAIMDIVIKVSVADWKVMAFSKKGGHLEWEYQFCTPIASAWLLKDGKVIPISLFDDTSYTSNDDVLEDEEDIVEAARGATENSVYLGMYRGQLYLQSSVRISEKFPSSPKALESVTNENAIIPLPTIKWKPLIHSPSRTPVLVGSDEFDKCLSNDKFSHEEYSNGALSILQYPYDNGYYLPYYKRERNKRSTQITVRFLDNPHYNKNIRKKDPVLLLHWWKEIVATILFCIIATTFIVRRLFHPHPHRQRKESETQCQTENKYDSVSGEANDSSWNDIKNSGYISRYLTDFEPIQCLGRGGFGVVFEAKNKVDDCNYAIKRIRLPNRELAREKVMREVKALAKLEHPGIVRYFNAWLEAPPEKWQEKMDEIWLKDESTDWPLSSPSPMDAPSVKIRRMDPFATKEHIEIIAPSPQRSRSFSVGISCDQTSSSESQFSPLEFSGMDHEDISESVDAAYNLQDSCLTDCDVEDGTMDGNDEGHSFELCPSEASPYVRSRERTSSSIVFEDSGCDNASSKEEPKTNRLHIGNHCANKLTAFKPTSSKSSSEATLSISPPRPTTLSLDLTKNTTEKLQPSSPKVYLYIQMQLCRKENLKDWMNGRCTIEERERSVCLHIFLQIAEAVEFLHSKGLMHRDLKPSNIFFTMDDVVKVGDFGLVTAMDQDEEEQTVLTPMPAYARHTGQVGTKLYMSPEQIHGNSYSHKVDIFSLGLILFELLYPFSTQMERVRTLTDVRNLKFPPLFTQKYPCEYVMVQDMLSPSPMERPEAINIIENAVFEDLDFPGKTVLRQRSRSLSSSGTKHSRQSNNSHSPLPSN

CSNK1G2 (human) = CSNK1G2 (human) (UniProt P78368)
CDK9 CCNT1 (human) = CDK9 CCNT1 (human) (UniProt P50750+O60563)
[2] = test system: OXSR1 (human), O95747 [T185E]
ABL1 (human) = ABL1 (human) (UniProt P00519)
STK33 (human) = STK33 (human) (UniProt Q9BYT3)
STK33 (human), sequence (Q9BYT3 whole entry, looked up): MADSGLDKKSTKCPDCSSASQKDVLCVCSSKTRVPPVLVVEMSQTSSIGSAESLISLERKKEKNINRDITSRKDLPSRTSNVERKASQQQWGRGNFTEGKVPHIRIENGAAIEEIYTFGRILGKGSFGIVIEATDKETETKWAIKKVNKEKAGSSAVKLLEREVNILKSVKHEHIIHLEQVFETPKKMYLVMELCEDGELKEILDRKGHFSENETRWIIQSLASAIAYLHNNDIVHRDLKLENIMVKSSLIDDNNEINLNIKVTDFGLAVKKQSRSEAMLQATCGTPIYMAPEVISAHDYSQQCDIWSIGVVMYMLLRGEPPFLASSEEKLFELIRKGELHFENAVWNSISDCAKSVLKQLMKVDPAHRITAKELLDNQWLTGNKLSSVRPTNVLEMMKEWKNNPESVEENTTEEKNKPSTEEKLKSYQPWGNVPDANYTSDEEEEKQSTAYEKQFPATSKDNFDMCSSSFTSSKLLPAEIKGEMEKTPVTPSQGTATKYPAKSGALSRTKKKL

MAP4K3 (human) = MAP4K3 (human) (UniProt Q8IVH8)
WNK1 (human) = WNK1 (human) (UniProt Q9H4A3)

residual activity (ULK1 (human); compound 1.0 µM): 104%
residual activity (ULK1 (human); compound 5.0 µM): 110%
residual activity (ULK2 (human); compound 1.0 µM): 96%
residual activity (ULK2 (human); compound 5.0 µM): 121%
residual activity (ZAP70 (human); compound 1.0 µM): 99%
residual activity (ZAP70 (human); compound 5.0 µM): 104%
residual activity (PDGFRA (human); compound 5.0 µM): 109%
residual activity (DDR2 (human); compound 1.0 µM): 105%
residual activity (DDR2 (human); compound 5.0 µM): 107%
residual activity (PLK1 (human); compound 1.0 µM): 103%
residual activity (PLK1 (human); compound 5.0 µM): 103%
residual activity (TESK1 (human); compound 1.0 µM): 106%
residual activity (TESK1 (human); compound 5.0 µM): 112%
residual activity (MAP4K5 (human); compound 1.0 µM): 116%
residual activity (MAP4K5 (human); compound 5.0 µM): 97%
residual activity (PTK6 (human); compound 1.0 µM): 107%
residual activity (PTK6 (human); compound 5.0 µM): 120%
residual activity (SIK3 (human); compound 1.0 µM): 110%
residual activity (SIK3 (human); compound 5.0 µM): 104%
residual activity (SIK2 (human); compound 1.0 µM): 108%
residual activity (SIK2 (human); compound 5.0 µM): 93%
residual activity (IRAK1 (human); compound 1.0 µM): 96%
residual activity (IRAK1 (human); compound 5.0 µM): 102%
residual activity (TSSK1B (human); compound 1.0 µM): 103%
residual activity (TSSK1B (human); compound 5.0 µM): 93%
residual activity (PRKCG (human); compound 1.0 µM): 120%
residual activity (PRKCG (human); compound 5.0 µM): 121%
residual activity (TLK1 (human); compound 1.0 µM): 108%
residual activity (TLK1 (human); compound 5.0 µM): 115%
residual activity (TTBK2 (human); compound 1.0 µM): 125%
residual activity (TTBK2 (human); compound 5.0 µM): 100%
residual activity ([1]; compound 1.0 µM): 111%
residual activity ([1]; compound 5.0 µM): 107%
residual activity (TEK (human); compound 1.0 µM): 99%
residual activity (TEK (human); compound 5.0 µM): 80%
residual activity (STK24 (human); compound 1.0 µM): 101%
residual activity (STK24 (human); compound 5.0 µM): 88%
residual activity (STK16 (human); compound 1.0 µM): 121%
residual activity (STK16 (human); compound 5.0 µM): 106%
residual activity (TTBK1 (human); compound 1.0 µM): 110%
residual activity (TTBK1 (human); compound 5.0 µM): 103%
residual activity (EIF2AK3 (human); compound 1.0 µM): 111%
residual activity (EIF2AK3 (human); compound 5.0 µM): 123%
residual activity (CSNK1G2 (human); compound 1.0 µM): 124%
residual activity (CSNK1G2 (human); compound 5.0 µM): 101%
residual activity (CDK9 CCNT1 (human); compound 1.0 µM): 119%
residual activity (CDK9 CCNT1 (human); compound 5.0 µM): 101%
residual activity ([2]; compound 1.0 µM): 115%
residual activity (ABL1 (human); compound 1.0 µM): 119%
residual activity (ABL1 (human); compound 5.0 µM): 110%
residual activity (STK33 (human); compound 1.0 µM): 117%
residual activity (STK33 (human); compound 5.0 µM): 102%
residual activity (MAP4K3 (human); compound 1.0 µM): 95%
residual activity (MAP4K3 (human); compound 5.0 µM): 88%
residual activity (WNK1 (human); compound 1.0 µM): 112%
residual activity (WNK1 (human); compound 5.0 µM): 100%
SMILES: C=C1C(=O)OC2C1CC/C(C)=C/CCC1(C)OC21 (stereo not given)

residual activity (ULK1 (human); compound 0.1 µM): 108%
residual activity (ULK1 (human); compound 1.0 µM): 115%
residual activity (ULK1 (human); compound 10.0 µM): 111%
residual activity (ULK2 (human); compound 0.1 µM): 92%
residual activity (ULK2 (human); compound 1.0 µM): 96%
residual activity (ULK2 (human); compound 10.0 µM): 90%
residual activity (ZAP70 (human); compound 1.0 µM): 113%
residual activity (PDGFRA (human); compound 1.0 µM): 117%
residual activity (PDGFRA (human); compound 10.0 µM): 121%
residual activity (DDR2 (human); compound 0.1 µM): 105%
residual activity (DDR2 (human); compound 1.0 µM): 100%
residual activity (DDR2 (human); compound 10.0 µM): 94%
residual activity (PLK1 (human); compound 0.1 µM): 105%
residual activity (PLK1 (human); compound 1.0 µM): 101%
residual activity (PLK1 (human); compound 10.0 µM): 118%
residual activity (TESK1 (human); compound 0.1 µM): 109%
residual activity (TESK1 (human); compound 1.0 µM): 114%
residual activity (TESK1 (human); compound 10.0 µM): 104%
residual activity (MAP4K5 (human); compound 0.1 µM): 106%
residual activity (MAP4K5 (human); compound 1.0 µM): 110%
residual activity (MAP4K5 (human); compound 10.0 µM): 94%
residual activity (PTK6 (human); compound 0.1 µM): 109%
residual activity (PTK6 (human); compound 1.0 µM): 123%
residual activity (SIK3 (human); compound 0.1 µM): 105%
residual activity (SIK3 (human); compound 1.0 µM): 106%
residual activity (SIK3 (human); compound 10.0 µM): 94%
residual activity (SIK2 (human); compound 0.1 µM): 82%
residual activity (SIK2 (human); compound 1.0 µM): 78%
residual activity (SIK2 (human); compound 10.0 µM): 66%
residual activity (IRAK1 (human); compound 0.1 µM): 101%
residual activity (IRAK1 (human); compound 1.0 µM): 99%
residual activity (IRAK1 (human); compound 10.0 µM): 100%
residual activity (TSSK1B (human); compound 0.1 µM): 100%
residual activity (TSSK1B (human); compound 1.0 µM): 102%
residual activity (TSSK1B (human); compound 10.0 µM): 78%
residual activity (PRKCG (human); compound 0.1 µM): 119%
residual activity (PRKCG (human); compound 1.0 µM): 112%
residual activity (PRKCG (human); compound 10.0 µM): 102%
residual activity (TLK1 (human); compound 0.1 µM): 101%
residual activity (TLK1 (human); compound 1.0 µM): 103%
residual activity (TLK1 (human); compound 10.0 µM): 98%
residual activity (TTBK2 (human); compound 0.1 µM): 108%
residual activity (TTBK2 (human); compound 1.0 µM): 105%
residual activity (TTBK2 (human); compound 10.0 µM): 112%
residual activity ([1]; compound 0.1 µM): 107%
residual activity ([1]; compound 1.0 µM): 120%
residual activity ([1]; compound 10.0 µM): 112%
residual activity (TEK (human); compound 1.0 µM): 98%
residual activity (TEK (human); compound 10.0 µM): 83%
residual activity (STK24 (human); compound 0.1 µM): 111%
residual activity (STK24 (human); compound 1.0 µM): 126%
residual activity (STK24 (human); compound 10.0 µM): 133%
residual activity (STK16 (human); compound 10.0 µM): 126%
residual activity (TTBK1 (human); compound 0.1 µM): 100%
residual activity (TTBK1 (human); compound 1.0 µM): 118%
residual activity (TTBK1 (human); compound 10.0 µM): 95%
residual activity (EIF2AK3 (human); compound 0.1 µM): 129%
residual activity (EIF2AK3 (human); compound 1.0 µM): 108%
residual activity (EIF2AK3 (human); compound 10.0 µM): 115%
residual activity (CSNK1G2 (human); compound 0.1 µM): 109%
residual activity (CSNK1G2 (human); compound 1.0 µM): 104%
residual activity (CSNK1G2 (human); compound 10.0 µM): 103%
residual activity (CDK9 CCNT1 (human); compound 0.1 µM): 94%
residual activity (CDK9 CCNT1 (human); compound 1.0 µM): 97%
residual activity (CDK9 CCNT1 (human); compound 10.0 µM): 107%
residual activity ([2]; compound 0.1 µM): 128%
residual activity ([2]; compound 1.0 µM): 109%
residual activity ([2]; compound 10.0 µM): 125%
residual activity (ABL1 (human); compound 0.1 µM): 101%
residual activity (ABL1 (human); compound 1.0 µM): 110%
residual activity (ABL1 (human); compound 10.0 µM): 106%
residual activity (STK33 (human); compound 0.1 µM): 116%
residual activity (STK33 (human); compound 10.0 µM): 120%
residual activity (MAP4K3 (human); compound 0.1 µM): 81%
residual activity (MAP4K3 (human); compound 1.0 µM): 85%
residual activity (MAP4K3 (human); compound 10.0 µM): 84%
residual activity (WNK1 (human); compound 0.1 µM): 117%
residual activity (WNK1 (human); compound 1.0 µM): 111%
residual activity (WNK1 (human); compound 10.0 µM): 113%
SMILES: CC1=C(CO)C(=O)O[C@@H]([C@@H](C)[C@H]2CC[C@H]3[C@@H]4C[C@H]5O[C@]56[C@@H](O)C=CC(=O)[C@]6(C)C4CC[C@]23C)C1 (stereo not given in full)
